Measured values as given in patent publication US10479786B2, “Protein kinase inhibitors” (Princeton Drug Discovery Inc, priority 2016, dated 2019).

Columns and labels:
Assay in all cases: Off-chip Mobility Shift Assay, kinase inhibition
Assay type in all cases: biochemical
RET(G691 S) = biological target: T1, RET(G691 S) (Homo sapiens, UniProt P07949, G691S); conditions: at 10 nM; recombinant RET(G691 S)
T1 construct: purchased Carna Biosciences, Inc

KIT(T670I) = biological target: T2, KIT(T670I) (Homo sapiens, UniProt P10721, T670I); conditions: at 10 nM; recombinant KIT(T670I)
T2 construct: purchased Carna Biosciences, Inc
T2 sequence (P10721 26-976 T670I): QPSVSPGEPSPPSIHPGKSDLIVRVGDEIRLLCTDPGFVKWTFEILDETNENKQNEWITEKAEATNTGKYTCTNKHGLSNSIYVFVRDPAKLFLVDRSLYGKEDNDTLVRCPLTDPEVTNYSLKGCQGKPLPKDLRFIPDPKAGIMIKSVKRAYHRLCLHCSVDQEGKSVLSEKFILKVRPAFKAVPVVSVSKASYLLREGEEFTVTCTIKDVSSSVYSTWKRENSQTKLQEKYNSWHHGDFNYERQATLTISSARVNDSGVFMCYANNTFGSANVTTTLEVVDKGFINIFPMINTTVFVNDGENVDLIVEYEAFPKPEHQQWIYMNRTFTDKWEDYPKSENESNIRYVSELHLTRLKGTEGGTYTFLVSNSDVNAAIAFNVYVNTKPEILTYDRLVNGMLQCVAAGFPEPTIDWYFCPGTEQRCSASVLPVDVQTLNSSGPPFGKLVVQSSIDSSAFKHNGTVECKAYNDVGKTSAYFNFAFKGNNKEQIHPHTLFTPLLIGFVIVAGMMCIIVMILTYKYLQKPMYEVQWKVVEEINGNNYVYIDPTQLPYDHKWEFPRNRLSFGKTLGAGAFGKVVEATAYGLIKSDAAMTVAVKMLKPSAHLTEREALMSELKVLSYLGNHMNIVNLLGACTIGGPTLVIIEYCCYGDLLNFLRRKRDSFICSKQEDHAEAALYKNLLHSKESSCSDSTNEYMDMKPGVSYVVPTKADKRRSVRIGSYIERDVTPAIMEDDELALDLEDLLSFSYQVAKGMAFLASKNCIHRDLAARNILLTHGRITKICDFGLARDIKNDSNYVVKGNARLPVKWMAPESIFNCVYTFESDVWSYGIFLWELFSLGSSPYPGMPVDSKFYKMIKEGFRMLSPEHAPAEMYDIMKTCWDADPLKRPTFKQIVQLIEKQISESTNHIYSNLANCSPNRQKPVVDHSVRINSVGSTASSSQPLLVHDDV

RET(Y791F) = biological target: T3, RET(Y791F) (Homo sapiens, UniProt P07949, Y791F); conditions: at 10 nM; recombinant RET(Y791F)
T3 construct: purchased Carna Biosciences, Inc
T3 sequence (P07949 29-1114 Y791F): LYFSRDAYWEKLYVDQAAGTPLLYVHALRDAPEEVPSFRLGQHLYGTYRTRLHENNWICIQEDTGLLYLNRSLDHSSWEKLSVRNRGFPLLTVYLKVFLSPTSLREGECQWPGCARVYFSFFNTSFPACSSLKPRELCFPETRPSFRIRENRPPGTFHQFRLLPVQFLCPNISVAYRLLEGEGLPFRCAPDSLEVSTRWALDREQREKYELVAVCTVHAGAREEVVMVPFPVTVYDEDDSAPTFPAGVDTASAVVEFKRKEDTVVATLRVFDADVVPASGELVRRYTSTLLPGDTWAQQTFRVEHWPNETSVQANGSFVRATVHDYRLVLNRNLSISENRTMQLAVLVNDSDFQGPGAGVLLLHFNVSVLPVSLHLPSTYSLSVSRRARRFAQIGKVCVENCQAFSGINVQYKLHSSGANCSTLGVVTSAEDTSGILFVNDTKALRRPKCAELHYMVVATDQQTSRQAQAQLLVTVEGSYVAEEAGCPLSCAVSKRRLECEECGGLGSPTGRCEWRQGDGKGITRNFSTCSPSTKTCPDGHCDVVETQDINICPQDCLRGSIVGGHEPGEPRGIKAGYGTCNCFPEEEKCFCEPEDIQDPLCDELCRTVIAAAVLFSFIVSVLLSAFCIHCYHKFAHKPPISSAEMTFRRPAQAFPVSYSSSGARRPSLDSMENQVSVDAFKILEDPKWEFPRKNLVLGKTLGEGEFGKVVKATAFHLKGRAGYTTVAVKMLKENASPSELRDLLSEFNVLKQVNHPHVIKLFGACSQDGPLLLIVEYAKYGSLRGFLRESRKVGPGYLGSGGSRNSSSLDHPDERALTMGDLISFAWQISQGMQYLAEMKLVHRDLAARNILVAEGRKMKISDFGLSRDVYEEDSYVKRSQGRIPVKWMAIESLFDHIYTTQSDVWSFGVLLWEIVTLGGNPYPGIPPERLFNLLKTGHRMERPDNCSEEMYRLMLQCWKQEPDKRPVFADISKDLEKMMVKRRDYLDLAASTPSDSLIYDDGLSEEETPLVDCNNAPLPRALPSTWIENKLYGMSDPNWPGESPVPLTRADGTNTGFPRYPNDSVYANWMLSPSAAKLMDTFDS

Erk1 = biological target: T4, Erk1 (Homo sapiens, UniProt P27361); conditions: at 10 nM; recombinant Erk1
T4 construct: purchased Carna Biosciences, Inc
T4 sequence (P27361 whole entry): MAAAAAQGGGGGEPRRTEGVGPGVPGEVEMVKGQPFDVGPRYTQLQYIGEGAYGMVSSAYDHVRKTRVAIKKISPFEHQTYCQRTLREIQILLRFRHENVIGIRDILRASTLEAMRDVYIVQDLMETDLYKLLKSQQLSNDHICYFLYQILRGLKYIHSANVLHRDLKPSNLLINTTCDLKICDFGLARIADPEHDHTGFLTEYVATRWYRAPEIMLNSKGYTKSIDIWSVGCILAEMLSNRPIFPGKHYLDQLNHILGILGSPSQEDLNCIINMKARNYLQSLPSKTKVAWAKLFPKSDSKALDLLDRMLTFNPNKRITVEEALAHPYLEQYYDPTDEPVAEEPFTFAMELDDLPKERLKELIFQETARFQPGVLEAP

PDGFRα(D842V) = biological target: T5, PDGFRα(D842V) (Homo sapiens, UniProt P16234, D842V); conditions: at 10 nM; recombinant PDGFRα(D842V)
T5 construct: purchased Carna Biosciences, Inc
T5 sequence (P16234 24-1089 D842V): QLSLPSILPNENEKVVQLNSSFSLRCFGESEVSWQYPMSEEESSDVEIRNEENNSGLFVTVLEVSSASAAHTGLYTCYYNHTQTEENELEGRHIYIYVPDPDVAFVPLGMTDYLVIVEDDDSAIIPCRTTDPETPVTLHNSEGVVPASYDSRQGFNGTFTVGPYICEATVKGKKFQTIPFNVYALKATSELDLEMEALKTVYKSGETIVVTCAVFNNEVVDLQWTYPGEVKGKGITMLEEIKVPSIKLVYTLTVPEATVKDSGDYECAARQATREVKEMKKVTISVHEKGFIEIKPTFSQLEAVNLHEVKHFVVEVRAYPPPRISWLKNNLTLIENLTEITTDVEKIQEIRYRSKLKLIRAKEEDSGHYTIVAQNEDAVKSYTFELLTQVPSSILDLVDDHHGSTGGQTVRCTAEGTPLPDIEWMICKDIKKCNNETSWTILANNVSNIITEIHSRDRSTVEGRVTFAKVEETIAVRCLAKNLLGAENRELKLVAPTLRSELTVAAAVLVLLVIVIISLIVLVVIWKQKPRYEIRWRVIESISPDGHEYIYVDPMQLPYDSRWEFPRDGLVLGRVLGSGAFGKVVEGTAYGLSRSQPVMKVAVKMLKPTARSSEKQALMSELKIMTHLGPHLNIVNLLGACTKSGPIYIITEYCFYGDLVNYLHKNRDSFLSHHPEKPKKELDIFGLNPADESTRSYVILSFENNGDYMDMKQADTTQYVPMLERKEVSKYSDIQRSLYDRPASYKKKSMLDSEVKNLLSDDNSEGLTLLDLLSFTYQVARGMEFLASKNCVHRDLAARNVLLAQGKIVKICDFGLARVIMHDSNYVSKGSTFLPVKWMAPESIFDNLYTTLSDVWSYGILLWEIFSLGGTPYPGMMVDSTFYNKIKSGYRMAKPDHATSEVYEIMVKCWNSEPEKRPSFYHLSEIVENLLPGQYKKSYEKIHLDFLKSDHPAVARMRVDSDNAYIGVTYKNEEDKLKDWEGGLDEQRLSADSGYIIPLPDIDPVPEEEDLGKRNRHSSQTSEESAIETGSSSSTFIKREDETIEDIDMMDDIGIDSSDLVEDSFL

KDR = biological target: T6, KDR (Homo sapiens, UniProt P35968); conditions: at 10 nM; recombinant KDR
T6 construct: purchased Carna Biosciences, Inc
T6 sequence (P35968 20-1356): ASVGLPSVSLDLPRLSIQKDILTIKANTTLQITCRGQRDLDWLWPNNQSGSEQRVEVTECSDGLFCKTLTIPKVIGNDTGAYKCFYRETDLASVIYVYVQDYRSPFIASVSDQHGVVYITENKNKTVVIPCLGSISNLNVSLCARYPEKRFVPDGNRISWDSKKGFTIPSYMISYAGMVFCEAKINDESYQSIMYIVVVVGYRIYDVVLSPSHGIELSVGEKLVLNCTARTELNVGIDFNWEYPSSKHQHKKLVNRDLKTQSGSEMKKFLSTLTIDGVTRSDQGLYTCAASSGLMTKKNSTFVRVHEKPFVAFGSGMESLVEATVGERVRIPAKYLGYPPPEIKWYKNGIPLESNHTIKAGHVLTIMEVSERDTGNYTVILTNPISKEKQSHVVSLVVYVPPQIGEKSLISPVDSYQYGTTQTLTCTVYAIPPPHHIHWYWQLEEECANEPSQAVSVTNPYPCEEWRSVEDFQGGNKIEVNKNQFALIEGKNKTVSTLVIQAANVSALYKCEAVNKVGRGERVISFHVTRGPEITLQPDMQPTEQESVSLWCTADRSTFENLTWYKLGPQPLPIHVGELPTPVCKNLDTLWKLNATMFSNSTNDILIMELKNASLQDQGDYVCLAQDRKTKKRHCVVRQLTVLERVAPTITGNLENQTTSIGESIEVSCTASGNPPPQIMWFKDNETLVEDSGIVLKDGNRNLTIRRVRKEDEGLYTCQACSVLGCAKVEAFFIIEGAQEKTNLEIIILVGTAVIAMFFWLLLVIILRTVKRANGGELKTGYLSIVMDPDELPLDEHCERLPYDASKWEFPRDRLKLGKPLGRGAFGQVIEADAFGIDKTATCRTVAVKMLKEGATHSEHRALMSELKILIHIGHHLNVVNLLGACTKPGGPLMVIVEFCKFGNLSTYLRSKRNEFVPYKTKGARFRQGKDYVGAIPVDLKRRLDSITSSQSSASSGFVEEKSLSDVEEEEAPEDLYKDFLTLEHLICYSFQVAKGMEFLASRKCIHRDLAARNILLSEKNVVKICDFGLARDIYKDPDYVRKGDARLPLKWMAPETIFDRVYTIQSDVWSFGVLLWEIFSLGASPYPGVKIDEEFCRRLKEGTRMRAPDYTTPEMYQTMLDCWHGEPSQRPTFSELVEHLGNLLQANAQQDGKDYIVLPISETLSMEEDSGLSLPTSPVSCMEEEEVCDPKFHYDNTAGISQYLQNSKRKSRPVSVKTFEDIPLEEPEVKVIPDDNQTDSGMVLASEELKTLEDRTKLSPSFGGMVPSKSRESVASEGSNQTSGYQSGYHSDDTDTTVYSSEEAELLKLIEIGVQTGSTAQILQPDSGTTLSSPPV

Measured: inhibition at 0.01 µM

T1 sequence (P07949 29-1114 G691S): as the sequence (P07949 29-1114 Y791F) above, with G663S, F763Y counted along it

[2H]c1cc(C)c(NC(=O)c2cnc(Nc3cc(N4CCCCC4)nc(C)n3)s2)c(Cl)c1 [Compound I, N-(2-chloro-4-deuterio-6-methyl-phenyl)-2-[[2-methyl-6-(1-piperidyl)pyrimidin-4-yl]amino]thiazole-5-carboxamide]
< 50%: all assays above
